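Exposure lasted 48 hours, with cells grown in 96-well plates and compounds tested at five concentrations. GI50 = concentration required for 50% inhibition of growth. The concentration for full growth arrest is given as TGI.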
Experiments:
Assay in all cases: NCI tumour cell line growth inhibition, 48 h
[1] = system: T-47D breast
[2] = system: MCF7 breast
[3] = system: P388 leukemia
[4] = system: SNB-78 CNS
[5] = system: DMS 273 small cell lung
[6] = system: P388/ADR leukemia
[7] = system: SN12K1 renal
[8] = system: RXF-631 renal
[9] = system: LXFL 529 NSCLC

Compound: COc1ccc(CC2COc3cc(OC)cc(OC)c3C2=O)cc1 (centres undefined)
- TGI [1]: 56 µM
- TGI [2]: > 100 µM

Compound: CC1=C2C(O)C(C(C)C(=O)N(C)C)CCC2(C)C=CC1=O (centres undefined)
- TGI [3]: > 100 µM
- TGI [4]: > 100 µM
- TGI [5]: > 100 µM
- TGI [2]: > 100 µM
- TGI [6]: > 100 µM
- TGI [7]: > 100 µM

Compound: CN(C)/C=C/C(=CC=[N+](C)C)/C=C/N(C)C
- TGI [8]: > 100 µM
- TGI [4]: > 100 µM
- TGI [5]: > 100 µM
- TGI [9]: > 100 µM

Compound: CCC1C[N+]23CCc4c([nH]c5ccccc45)C2CC1CC3 (centres undefined)
- TGI [5]: > 100 µM
- TGI [9]: > 100 µM

Compound: O=C1C=C(C2OC(CO)C(O)C2O)C(=O)N1 (centres undefined)
- TGI [3]: 60.9 µM
- TGI [4]: > 100 µM
- TGI [5]: > 100 µM
- TGI [2]: > 100 µM
- TGI [6]: 68.5 µM
- TGI [7]: > 100 µM

Compound: Cc1n(CC(C)C)c2c([n+]1C)C(=O)c1ccccc1C2=O
- TGI [4]: 3.48 µM
- TGI [1]: 0.441 µM
- TGI [5]: 0.786 µM
- TGI [9]: 0.508 µM

Compound: Cc1ccc2c(ccc(/C=C/c3ccc(O)c4ncccc34)[n+]2C)c1
- TGI [4]: 27.5 µM
- TGI [1]: > 32.1 µM
- TGI [5]: 17.2 µM
- TGI [9]: 19.7 µM

Compound: N#C[S-].[La+3].c1cnc2c(c1)ccc1cccnc12.c1cnc2c(c1)ccc1cccnc12.c1cnc2c(c1)ccc1cccnc12
- GI50 [9]: 1.83 µM
- TGI [9]: 15.3 µM

Compound: CCOC(=O)Nc1cc2c(c(N)n1)N=C(c1ccc(OC)cc1)CN2
- GI50 [1]: > 100 µM
- TGI [1]: > 100 µM
- GI50 [2]: 0.0264 µM
- TGI [2]: > 100 µM

Compound: Cc1ccc(S(=O)(=O)Nc2cccc3c(=O)[nH]cnc23)cc1
- TGI [4]: > 100 µM
- TGI [5]: > 100 µM
- TGI [9]: > 100 µM

Compound: CCOP(=Nc1ccc(N(C)C)cc1)(OCC)OCC
- TGI [2]: > 100 µM

Compound: CC(=O)C(C(c1ccccc1)N1CCOCC1)N1CCOCC1 (centres undefined)
- TGI [1]: > 100 µM
- TGI [2]: > 100 µM

Compound: CC1(C)[C@@H]2CC[C@]1(C)[C@H](OC(=O)CSC#N)C2
- TGI [1]: > 100 µM
- TGI [2]: > 100 µM

Compound: O=S(=O)(O)c1ccc(N=Nc2ccc3c(S(=O)(=O)O)cccc3c2O)c2ccccc12
- TGI [1]: > 100 µM
- TGI [2]: > 100 µM

Compound: Cc1cccc(Cl)c1NCC(O)CN1CCN(C)CC1 (centres undefined)
- TGI [1]: > 100 µM

Compound: COC1OC(CS(=O)(=O)O)C(O)C(O)C1O (centres undefined)
- TGI [1]: > 100 µM
- TGI [2]: > 100 µM

Compound: C=C1C(=O)OC2/C=C(\C(=O)O)CC/C=C(\C)CC(OC(=O)/C=C(\C)CC)C12 (centres undefined)
- TGI [4]: 61 µM
- TGI [5]: 34 µM
- TGI [9]: 31.6 µM

Compound: COc1cc2c(cc1O)c(O)cc1c3cc(OC)c(OC)cc3c[n+](C)c21
- TGI [1]: > 80.3 µM
- TGI [2]: > 100 µM

Compound: CCCC(C)c1ccc(OCCCCCCN2CCNCC2)cc1 (centres undefined)
- GI50 [1]: 1.71 µM
- TGI [1]: 3.72 µM

Compound: CN(C)CCNC(=O)c1cccc2c(=O)c3ccccc3oc12
- TGI [3]: 52.2 µM
- TGI [4]: > 100 µM
- TGI [5]: > 91.2 µM
- TGI [2]: 74 µM
- TGI [6]: 73.2 µM
- TGI [7]: 47.5 µM

Compound: O=C(c1ccccc1)c1ccc2n[se]nc2c1
- TGI [8]: > 100 µM
- TGI [4]: > 100 µM
- TGI [5]: > 100 µM
- TGI [9]: > 100 µM
